Experimental data taken from patent publication US20240308976A1, “COMPOUNDS THAT MEDIATE PROTEIN DEGRADATION AND USES THEREOF” (Monte Rosa Therapeutics, Inc., priority 2021, published 2024).
pIC50: −log10 of the molar value.

What was measured:
CRBN-DDB1 = CRBN-DDB1 (Homo sapiens, UniProt Q96SW2); test: Compound binding to CRBN by HTRF assay; details: CRBN-DDB1 2.5 nM, Cy5-Thalidomide 100 nM, 30 min at ambient temperature; read-out: HTRF Class (Cereblon binding, HTRF IC50)
Protocol: Example 146: Compound Binding to CRBN by HTRF Assay
Compound activity was monitored in a Homogenous Time-Resolved Fluorescence (HTRF) assay using 1-[5-({2-[2-(2-{[2-(2,6-dioxopiperidin-3-yl)-1,3-dioxo-2,3-dihydro-1H-isoindol-4-yl]oxy}acetamido)ethoxy]ethyl}carbamoyl)pentyl]-3,3-dimethyl-2-[(1E,3E)-5-[(2E)-1,3,3-trimethyl-5-sulfo-2,3-dihydro-1H-indol-2-ylidene]penta-1,3-dien-1-yl]-3H-indol-1-ium-5-sulfonate as a fluorescent probe. Biochemical assays were conducted in Greiner white 384 well HiBase plates (Cat. No 784075-25) in 10 μL total volume. A one pot detection solution of CRBN-DDB1 (2.5 nM), Anti-His Terbium Cryptate Gold (1X, PerkinElmer Cat. #: 61HI2TLB), and Cy5-Thalidomide (100 nM, Tenova Cat.: T52461) was prepared in 20 mM HEPES, 20 mM NaCl, 0.2 mM TCEP, 0.2 mM EDTA, and 0.005% Tween20 was dispensed to each assay plate. Compounds were stored in dry, ambient temperatures at 10 mM. A 10-point, 1:3 dilution series was prepared from 10 mM stock concentrations in Echo-compatible LDV plates. 10 nL of each compound dilution series was dispensed into assays wells using an Echo 650 (Labcyte inc. USA). 10 nL of 10 mM Lenalidomide was transferred into the active-control wells for the assay and 10 nL of DMSO was transferred into the neutral-control wells. The assay was then allowed to incubate for 30 min at ambient temperature after transferring compound. Plate measurements were taken on a Pherastar FSX (BMG Labtech, Germany) using the HTRF Red filter (Ex. 337 nm, em1: 620 nm, em2: 665 nm) (Flashes: 50, Integration time: 60-400 us, Z-height: 10 mm, Ratio-multiplier: 10,000). The HTRF signal was then subsequently normalized to the neutral and active controls. Analysis and IC50 values were derived using KNIME analytics (KNIME Zurich) transformation and fitting within Collaborative Drug Discovery (Collaborative Drug Discovery USA). Ki was derived from the geometric mean of the IC50 values using the Cheng-Prustoff transformation.
(§1) In Table 2, each compound is assigned a class (HTRF class) indicating the ability for Cereblon binding by means of their HTRF IC50 values according to […]: A, B, C or D. According to the code, A represents an IC50 value of ≤100 nM, B represents an IC50 value>100 nM and ≤1000 nM, C represents an IC50 value>1000 nM. IF Class assigns each compound a code indicating the ability for GSPT1 degradation: A, B or C. According to the code, A represents a DC50 value of ≤30 nM, B represents a DC50 value>30 nM and ≤300 nM and C represents a DC50 value of >300 nM.

GSPT1 = target: T1, GSPT1 (Homo sapiens, UniProt P15170+Q96SW2); test: Immunofluorescence assay for activity to degrade GSPT1 in CAL-51 cells; format: cell-based; details: 6 h treatment, read-out: IF Class (GSPT1 degradation, DC50)
T1 construct: CAL-51 cells were purchased from DSMZ (cat. Number ACC302); host or cells: CAL-51
Protocol: Example 147: Compound Activity by Immunofluorescence Assay
The representative compounds were tested in an immunofluorescence assay for their activity to degrade GSPT1. CAL-51 cells were purchased from DSMZ (cat. Number ACC302), sub-cultured in 90% Dulbecco's MEM (4.5 g/L glucose, Gibco 11965)+10% heat inactivated FBS (BioConcept, 2-01F136I) and incubated at 37° C., 5% CO2. For the assay imaging microtiter plate Cell Carrier 96 Ultra (Perkin Elmer 6055302) were pre-coated with Fibronectin (Sigma F085, 30 μL at 0.2 μg/mL) in PBS (100 μL, Gibco 14190) for 45 min at room temperature, rinsed with PBS and CAL-51 cells (30K cells/well) were plated and let to adhere overnight. Cells were treated with compounds typically using a serial dilution ranging from 30 μM to 0.1 nM for 6 h. Compounds were stored at 10 mM DMSO stocks. Vehicle (DMSO), positive (CC-885, 10 μM) and rescue controls (positive control plus 0.2 μM bortezomib) were also included at this stage. Cells were subsequently rinsed with PBS and fixed in 10% Formalin solution (50 μL, Sigma HT5011)) for 20 mins at room temperature. Following three consecutive PBS washes (100 μL), cells were permeabilized in 0.1% Triton X-100 in PBS (Sigma 93443, 50 μL) for 15 min. at room temperature. Following three further PBS washes, 50 μL blocking buffer (1% BSA, Sigma A4503, in PBS) was added for 45 min for signal-to noise reduction. Primary antibody (human GSPT1, Sigma HPA052488) was diluted in blocking buffer (dil.1/300, 35 μL/well) and incubated with the cells overnight at 4° C. After three PBS washes, Alexa-fluor 488 coupled secondary antibodies (Invitrogen, A32731, dil. 1/1000), Alexa-fluor 647-Phalloidin (Invitrogen, A22287, dil. 1/200) and DAPI (Thermo, #62248, dil. 1/1000) were diluted in blocking buffer and incubated with the samples for 2 h at room temperature. After three final PBS washes, samples were conserved in 100 μL PBS in the dark, until measurement. Image acquisition was performed on the Operetta High-Content Imager (Perkin-Elmer). Fluorescence intensity of […] (GSPT1), Alexa-Fluor 647 (Actin) and DAPI (Nucleus) were measured. For the determination of GSPT1 DC50 values, a custom algorithm implemented in the PerkinElmer image analysis software Harmony-Acapella® was developed. After user-defined setting of adjustment parameters, the analysis was run identically without human intervention for all image fields. DAPI staining of the nuclei was used to determine the location of cells using standard nuclei detection modules. Segmentation artifacts were removed by threshold-based filters for area, roundness and intensity. The outline of the cells was determined analogously from the sum of the normalized, smoothed DAPI and Actin channel, starting from each nucleus. The Alexa-Fluor 488 (GSPT1) signal intensity in each cell was finally measured, in order to obtain a Mean intensity per cell. GSPT1 degradation (DC50) was calculated after normalization to controls and data import in CDD vault Database, using non-linear regression.
as §1

Chain of CRBN-DDB1 (Q96SW2 whole entry): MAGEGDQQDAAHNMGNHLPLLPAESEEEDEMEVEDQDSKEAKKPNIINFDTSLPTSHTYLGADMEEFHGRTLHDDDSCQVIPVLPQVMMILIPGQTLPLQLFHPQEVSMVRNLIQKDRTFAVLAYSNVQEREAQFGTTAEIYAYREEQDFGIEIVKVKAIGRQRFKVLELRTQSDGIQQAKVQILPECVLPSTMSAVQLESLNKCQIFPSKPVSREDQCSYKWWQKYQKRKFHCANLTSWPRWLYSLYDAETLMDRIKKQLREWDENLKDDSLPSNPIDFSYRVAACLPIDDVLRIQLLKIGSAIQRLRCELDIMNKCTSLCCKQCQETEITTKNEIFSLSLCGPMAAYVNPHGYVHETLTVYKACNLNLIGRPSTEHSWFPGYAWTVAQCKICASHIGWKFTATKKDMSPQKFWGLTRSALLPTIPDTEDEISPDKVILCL
Chain of CRBN-DDB1 (Q16531 whole entry partner): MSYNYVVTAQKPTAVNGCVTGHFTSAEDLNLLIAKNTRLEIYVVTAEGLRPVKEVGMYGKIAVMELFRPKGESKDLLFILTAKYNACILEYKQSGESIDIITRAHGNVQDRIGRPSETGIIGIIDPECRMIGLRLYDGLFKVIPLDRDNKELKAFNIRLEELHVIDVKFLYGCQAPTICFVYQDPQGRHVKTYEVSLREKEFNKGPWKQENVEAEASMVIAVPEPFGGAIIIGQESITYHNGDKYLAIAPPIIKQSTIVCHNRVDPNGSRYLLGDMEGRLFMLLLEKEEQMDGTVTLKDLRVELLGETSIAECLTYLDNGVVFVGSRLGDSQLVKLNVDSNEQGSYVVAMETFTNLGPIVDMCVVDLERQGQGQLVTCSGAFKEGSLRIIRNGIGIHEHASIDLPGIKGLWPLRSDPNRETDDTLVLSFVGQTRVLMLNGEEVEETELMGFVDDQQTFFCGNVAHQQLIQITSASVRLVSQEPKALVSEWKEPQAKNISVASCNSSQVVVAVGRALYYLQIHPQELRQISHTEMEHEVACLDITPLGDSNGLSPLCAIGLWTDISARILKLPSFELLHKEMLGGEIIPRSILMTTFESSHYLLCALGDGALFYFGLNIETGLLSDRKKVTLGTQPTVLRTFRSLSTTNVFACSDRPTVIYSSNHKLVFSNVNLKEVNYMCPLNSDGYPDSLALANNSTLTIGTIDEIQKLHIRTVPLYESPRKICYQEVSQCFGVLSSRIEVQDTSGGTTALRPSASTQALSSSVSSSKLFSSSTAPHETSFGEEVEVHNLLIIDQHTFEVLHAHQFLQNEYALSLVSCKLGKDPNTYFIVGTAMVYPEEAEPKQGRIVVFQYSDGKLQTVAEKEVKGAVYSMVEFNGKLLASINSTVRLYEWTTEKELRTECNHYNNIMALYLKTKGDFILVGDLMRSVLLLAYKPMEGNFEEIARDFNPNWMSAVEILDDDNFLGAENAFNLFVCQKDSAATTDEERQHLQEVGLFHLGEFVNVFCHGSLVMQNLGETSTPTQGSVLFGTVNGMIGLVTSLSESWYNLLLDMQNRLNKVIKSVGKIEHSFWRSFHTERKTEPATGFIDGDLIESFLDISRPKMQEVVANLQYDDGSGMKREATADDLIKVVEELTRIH
T1 sequence (P15170 whole entry): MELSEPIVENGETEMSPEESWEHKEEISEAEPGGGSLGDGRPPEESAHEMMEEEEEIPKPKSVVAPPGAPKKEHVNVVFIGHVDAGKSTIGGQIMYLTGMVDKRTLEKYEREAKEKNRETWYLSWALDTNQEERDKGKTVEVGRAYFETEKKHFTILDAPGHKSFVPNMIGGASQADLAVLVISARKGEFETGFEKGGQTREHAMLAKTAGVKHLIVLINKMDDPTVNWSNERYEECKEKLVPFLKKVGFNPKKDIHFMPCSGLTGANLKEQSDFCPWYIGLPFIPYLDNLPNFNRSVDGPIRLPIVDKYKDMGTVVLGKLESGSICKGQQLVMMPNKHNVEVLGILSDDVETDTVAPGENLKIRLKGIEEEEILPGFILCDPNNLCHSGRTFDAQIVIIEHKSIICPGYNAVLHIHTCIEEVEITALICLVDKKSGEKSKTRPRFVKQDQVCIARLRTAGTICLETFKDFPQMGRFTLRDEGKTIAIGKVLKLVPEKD
T1 sequence (Q96SW2 whole entry): as the sequence (Q96SW2 whole entry) above
T1 sequence (Q16531 2-1140 partner limits assumed): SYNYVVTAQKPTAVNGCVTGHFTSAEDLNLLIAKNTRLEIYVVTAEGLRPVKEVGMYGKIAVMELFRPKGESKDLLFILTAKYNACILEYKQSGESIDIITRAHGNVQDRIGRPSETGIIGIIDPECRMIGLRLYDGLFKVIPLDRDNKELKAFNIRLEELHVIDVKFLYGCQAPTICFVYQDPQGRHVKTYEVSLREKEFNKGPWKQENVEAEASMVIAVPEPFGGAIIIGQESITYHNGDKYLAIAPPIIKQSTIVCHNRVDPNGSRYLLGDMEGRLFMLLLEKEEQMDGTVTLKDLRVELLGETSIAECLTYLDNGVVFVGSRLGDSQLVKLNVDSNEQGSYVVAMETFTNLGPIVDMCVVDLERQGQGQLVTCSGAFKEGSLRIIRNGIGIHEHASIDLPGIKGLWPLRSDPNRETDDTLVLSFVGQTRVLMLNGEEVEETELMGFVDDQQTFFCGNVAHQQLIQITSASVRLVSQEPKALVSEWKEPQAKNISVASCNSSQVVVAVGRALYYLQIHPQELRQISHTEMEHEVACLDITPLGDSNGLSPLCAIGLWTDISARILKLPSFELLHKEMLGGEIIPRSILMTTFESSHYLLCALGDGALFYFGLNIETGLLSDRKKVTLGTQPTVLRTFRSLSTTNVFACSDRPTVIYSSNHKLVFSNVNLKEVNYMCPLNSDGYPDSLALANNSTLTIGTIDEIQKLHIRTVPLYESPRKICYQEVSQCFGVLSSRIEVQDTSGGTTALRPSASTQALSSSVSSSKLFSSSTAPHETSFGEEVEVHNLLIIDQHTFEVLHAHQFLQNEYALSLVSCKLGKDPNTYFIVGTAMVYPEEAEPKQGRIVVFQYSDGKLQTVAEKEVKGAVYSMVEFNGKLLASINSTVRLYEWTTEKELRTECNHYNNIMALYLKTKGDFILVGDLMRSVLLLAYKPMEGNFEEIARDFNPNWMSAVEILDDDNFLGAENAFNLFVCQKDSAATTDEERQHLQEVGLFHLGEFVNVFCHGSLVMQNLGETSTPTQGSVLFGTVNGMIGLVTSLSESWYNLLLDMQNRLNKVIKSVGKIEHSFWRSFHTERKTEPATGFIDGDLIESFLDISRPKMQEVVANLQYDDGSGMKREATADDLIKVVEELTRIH

Structure (SMILES) | pIC50 (CRBN-DDB1) | DC50 (GSPT1) [nM]
Cc1cc(C)cc(NC(=O)OC2CN(c3cc(F)c(C4CCC(=O)NC4=O)c(F)c3)C2)c1 (stereo not drawn) [Compound 4, 1-(4-(2,6-dioxopiperidin-3-yl)-3,5-difluorophenyl)azetidin-3-yl (3,5-dimethyl phenyl)carbamate] | 6.00 to 7.00 | 30 to 300
Cc1c(Cl)cc(NC(=O)OC2CN(c3cc(F)c(C4CCC(=O)NC4=O)c(F)c3)C2)cc1CN1CCOCC1 (stereo not drawn) [Compound 5, 1-(4-(2,6-dioxopiperidin-3-yl)-3,5-difluorophenyl) azetidin-3-yl(3-chloro-4-methyl-5-(morpholinomethyl)phenyl)carbamate] | ≥ 7.00 | 30 to 300
Cc1ccc(NC(=O)OC2CN(c3cc(F)c(C4CCC(=O)NC4=O)c(F)c3)C2)cc1OC(F)F (stereo not drawn) [Compound 6, 1-(4-(2,6-dioxopiperidin-3-yl)-3,5-difluoropheny) azetidin-3-yl(3-(difluoromethoxy)-4-methylphenyl) carbamate] | 6.00 to 7.00 | 30 to 300
Cc1ccc(NC(=O)NC2CN(c3ccc(C4CCC(=O)NC4=O)c(F)c3)C2)cc1Cl (stereo not drawn) [Compound 7, 1-(3-chloro-4-methylphenyl)-3-(1-(4-(2,6-dioxopiperidin-3-yl)-3-fluorophenyl)azetidin-3-yl)urea] | 6.00 to 7.00 | 30 to 300
Cc1ccc(NC(=O)OC2CN(c3ccc(C4CCC(=O)NC4=O)c(F)c3)C2)cc1Cl (stereo not drawn) [Compound 8, 1-(4-(2,6-dioxopiperidin-3-yl)-3-fluorophenyl) azetidin-3-yl(3-chloro-4-methylphenyl)carbamate] | 6.00 to 7.00 | ≤ 30
Cc1c(Cl)cc(NC(=O)NC2CN(c3cc(F)c(C4CCC(=O)NC4=O)c(F)c3)C2)cc1CN1CC2CC1CO2 (stereo not drawn) [Compound 9, 1-(3-(2-oxa-5-azabicyclo[2.2.1]heptan-5-ylmethyl)-5-chloro-4-methylphenyl)-3-(1-(4-(2,6-dioxopiperidin-3-yl)-3,5-difluorophenyl)azetidin-3-yl)urea] | ≥ 7.00 | ≤ 30
C[C@@H]1CCCN1c1ccc(NC(=O)OC2CN(c3cc(F)c(C4CCC(=O)NC4=O)c(F)c3)C2)cn1 (stereo partly drawn) [Compound 10, 1-(4-(2,6-dioxopiperidin-3-yl)-3,5-difluorophenyl)azetidin-3-yl (6-((R)-2-methylpyrrolidin-1-yl)pyridin-3-yl)carbamate] | ≥ 7.00 | ≤ 30
Cc1cc(C)cc(NC(=O)NC2CN(c3cc(F)c(C4CCC(=O)NC4=O)c(F)c3)C2)c1 (stereo not drawn) [Compound 11, 1-(3,5-dimethylphenyl)-3-(1-(4-(2,6-dioxopiperidin-3-yl)-3,5-difluorophenyl)azetidin-3-yl)urea] | 6.00 to 7.00 | ≤ 30
CC(C)(C)c1ccc(NC(=O)NC2CN(c3cc(F)c(C4CCC(=O)NC4=O)c(F)c3)C2)cn1 (stereo not drawn) [Compound 12, 1-(6-(tert-butyl)pyridin-3-yl)-3-(1-(4-(2,6-dioxopiperidin-3-yl)-3,5-difluorophenyl)azetidin-3-yl)urea] | ≥ 7.00 | ≤ 30
Cc1c(Cl)cc(NC(=O)NC2CN(c3cc(F)c(C4CCC(=O)NC4=O)c(F)c3)C2)cc1OCCN1CCOCC1 (stereo not drawn) [Compound 13, 1-(3-chloro-4-methyl-5-(2-morpholinoethoxy)phenyl)-3-(1-(4-(2,6-dioxopiperidin-3-yl)-3,5-difluorophenyl)azetidin-3-yl)urea] | ≥ 7.00 | ≤ 30
O=C1CCC(c2c(F)cc(N3CC(OC(=O)Nc4cccc(OC(F)F)c4)C3)cc2F)C(=O)N1 (stereo not drawn) [Compound 14, 1-(4-(2,6-dioxopiperidin-3-yl)-3,5-difluorophenyl)azetidin-3-yl (3-(difluoromethoxy)phenyl)carbamate] | 6.00 to 7.00 | ≤ 30
O=C1CCC(c2c(F)cc(N3CC(NC(=O)Nc4cccc(OC(F)F)c4)C3)cc2F)C(=O)N1 (stereo not drawn) [Compound 15, 1-(3-(difluoromethoxy)phenyl)-3-(1-(4-(2,6-dioxopiperidin-3-yl)-3,5-difluorophenyl)azetidin-3-yl)urea] | ≥ 7.00 | 30 to 300
O=C1CCC(c2c(F)cc(N3CC(NC(=O)Nc4cc(F)cc(Cl)c4)C3)cc2F)C(=O)N1 (stereo not drawn) [Compound 16, 1-(3-chloro-5-fluorophenyl)-3-(1-(4-(2,6-dioxopiperidin-3-yl)-3,5-difluorophenyl)azetidin-3-yl)urea] | 6.00 to 7.00 | 30 to 300
O=C1CCC(c2c(F)cc(N3CC(NC(=O)Nc4cccc(OC5CC5)c4)C3)cc2F)C(=O)N1 (stereo not drawn) [Compound 17, 1-(3-cyclopropoxyphenyl)-3-(1-(4-(2,6-dioxopiperidin-3-yl)-3,5-difluorophenyl)azetidin-3-yl)urea] | 6.00 to 7.00 | 30 to 300
O=C1CCC(c2c(F)cc(N3CC(NC(=O)Nc4cccc(OC(F)(F)F)c4)C3)cc2F)C(=O)N1 (stereo not drawn) [Compound 18, 1-(1-(4-(2,6-dioxopiperidin-3-yl)-3,5-difluorophenyl)azetidin-3-yl)-3-(3-(trifluoromethoxy)phenyl)urea] | 6.00 to 7.00 | 30 to 300
O=C1CCC(c2c(F)cc(N3CC(NC(=O)Nc4ccc(F)c(OC(F)F)c4)C3)cc2F)C(=O)N1 (stereo not drawn) [Compound 19, 1-(3-(difluoromethoxy)-4-fluorophenyl)-3-(1-(4-(2,6-dioxopiperidin-3-yl)-3,5-difluorophenyl)azetidin-3-yl)urea] | 6.00 to 7.00 | ≤ 30
Cc1ccc(NC(=O)NC2CN(c3cc(F)c(C4CCC(=O)NC4=O)c(F)c3)C2)cc1OC(F)F (stereo not drawn) [Compound 21, 1-(3-(difluoromethoxy)-4-methylphenyl)-3-(1-(4-(2,6-dioxopiperidin-3-yl)-3,5-difluorophenyl)azetidin-3-yl)urea] | 6.00 to 7.00 | ≤ 30
O=C1CCC(c2c(F)cc(N3CC(NC(=O)Nc4cc(F)cc(OC(F)F)c4)C3)cc2F)C(=O)N1 (stereo not drawn) [Compound 22, 1-(3-(difluoromethoxy)-5-fluorophenyl)-3-(1-(4-(2,6-dioxopiperidin-3-yl)-3,5-difluorophenyl)azetidin-3-yl)urea] | 6.00 to 7.00 | 30 to 300
